The values below come from US10000476B2, “Pyridone derivative, pharmaceutical containing the same and methods of use thereof” (KAKEN PHARMACEUTICAL CO., LTD., priority 2011, dated 2018).

A word on the IC50: it is the midpoint of a concentration-inhibition curve. The low end stands for greater potency, the high end for weaker potency.

Sequence of TACE (P78536 215-824): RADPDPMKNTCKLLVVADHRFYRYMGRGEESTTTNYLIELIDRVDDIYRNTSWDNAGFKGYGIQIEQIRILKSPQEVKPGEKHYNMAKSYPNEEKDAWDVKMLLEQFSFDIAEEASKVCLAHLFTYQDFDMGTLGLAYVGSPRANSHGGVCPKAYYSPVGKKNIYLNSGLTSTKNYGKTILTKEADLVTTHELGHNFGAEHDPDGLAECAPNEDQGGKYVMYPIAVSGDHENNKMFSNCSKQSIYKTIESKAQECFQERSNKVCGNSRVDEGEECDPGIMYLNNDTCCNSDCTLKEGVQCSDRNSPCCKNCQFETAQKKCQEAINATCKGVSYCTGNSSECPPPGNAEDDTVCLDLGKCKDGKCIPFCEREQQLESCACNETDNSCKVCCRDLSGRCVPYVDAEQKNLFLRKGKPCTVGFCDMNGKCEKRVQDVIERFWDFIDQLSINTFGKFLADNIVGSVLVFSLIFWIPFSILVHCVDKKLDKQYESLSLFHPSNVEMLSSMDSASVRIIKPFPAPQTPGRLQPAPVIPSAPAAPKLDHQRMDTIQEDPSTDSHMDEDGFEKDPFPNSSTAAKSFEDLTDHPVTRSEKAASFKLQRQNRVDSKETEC

For one assay, the target named is TACE (Homo sapiens (Human), UniProt P78536). As to the kind of experiment: TACE inhibition test (in vitro). It counts as biochemical. To be noted: fluorescent synthetic substrate, 37° C., 1.5 hours. The protocol:
The nucleotide sequence of TACE has been reported by Moss et al. (Moss, M. L. et al., Nature 1997, 385, 733-736). Accordingly, the cDNA of TACE was obtained according to the prescribed method from THP-1 cells or the like, and then incorporated the cDNA into an expression vector. Next, this vector was transformed into mammalian cells or insect cells, and TACE expression was obtained.
The TACE inhibition test was carried out by measuring TACE activity in the presence and the absence of the test substance using the thus-obtained TACE as an enzyme, and a fluorescent synthetic substrate Nma(N-methylanthranilic acid)-Leu-Ala-Gln-Ala-Val-Arg-Ser-Ser-Lys(Dnp(dinitrophenyl))-D-Arg-NH2 (SEQ ID NO: 1) including the TACE-cleaved sequence of a membrane-bound TNF as a substrate. The TACE inhibition test method is shown below.
Namely, 90 μL of an enzyme solution prepared with an assay buffer A (50 mM tris-hydrochloric acid buffer (pH 7.5) including 200 mM sodium chloride, 5 mM calcium chloride, 10 μM zinc sulfate, and 2 mg/mL bovine serum albumin) and 90 μL of a fluorescent synthetic substrate prepared with an assay buffer B (50 mM tris-hydrochloric acid buffer (pH 7.5) including 200 mM sodium chloride, 5 mM calcium chloride, 10 μM zinc sulfate, and 0.05% PLURONIC F-68) were mixed together, and reacted at 37° C. for 1.5 hours. Enzyme activity was then determined by measuring with a fluorescence intensity meter (Labsystems, Fluoroskan Ascent) at an excitation wavelength of 355 nm and a measurement wavelength of 460 nm.
From the enzyme activity in the presence or the absence of the test substance, the inhibition rate was determined, and the 50% inhibitiory concentration (IC50) of the test substance was calculated.
For the compound `Cc1cccn(CC2(c3ccc(Oc4cccc(F)c4)cc3)NC(=O)NC2=O)c1=O` (stereo not shown) [Compound I-84], the IC50 is under 100 nM.

With `Cc1cc(C2(Cn3cccc(C)c3=O)NC(=O)NC2=O)cc(C)c1OC1CCCC1` (stereo not shown) [Compound I-129], the IC50 is under 100 nM. Take `Cc1cccn(CC2(c3ccc(Sc4ccccc4)cc3)NC(=O)NC2=O)c1=O` (stereo not shown) [Compound I-102]: the concentration for half-maximal inhibition (IC50) was under 100 nM. Still for that read-out and setting: next, `Cc1cccn(CC2(c3ccc(Oc4ccc(F)cc4)cc3)NC(=O)NC2=O)c1=O` (stereo not shown) [Compound I-85]: under 100 nM; `Cc1cccn(CC2(c3ccc(OC4CCCCC4)cc3)NC(=O)NC2=O)c1=O` (stereo not shown) [Compound I-37, 5-[4-(cyclohexyloxy)phenyl]-5-[(3-methyl-2-oxopyridin-1(2H)-yl)methyl]imidazolidine-2,4-dione]: under 100 nM.

For the compound `O=C1NC(=O)C(Cn2cccc(F)c2=O)(c2ccc(Cc3ccccc3)cc2)N1` (stereo not shown) [Compound I-152], the half-maximal inhibitory concentration (IC50) is under 100 nM. The same measure, in the same setting: next, `Cc1cccn(CC2(c3ccc(-c4cccnc4)cc3)NC(=O)NC2=O)c1=O` (stereo not shown) [Compound I-32, 5-[(3-methyl-2-oxopyridin-1(2H)-yl)methyl]-5-[4-(pyridin-3-yl)phenyl]imidazolidine-2,4-dione]: under 100 nM. On to `Cc1cccn(CC2(c3cccc(C(F)(F)F)c3)NC(=O)NC2=O)c1=O` (stereo not shown) [Compound I-19], for which the IC50 is under 100 nM.

`COc1ccccc1Oc1ccc(C2(Cn3cccc(C)c3=O)NC(=O)NC2=O)cc1F` (stereo not shown) [Compound I-114]: the IC50 was under 100 nM. The same measure, in the same setting: to `Cc1cccn(CC2(c3cccc(C#CCN(C)C)c3)NC(=O)NC2=O)c1=O` (stereo not shown) [Compound I-71] belongs under 100 nM. On the same count and under the same terms, to `COc1ccc(C2(Cn3cccc(C(F)(F)F)c3=O)NC(=O)NC2=O)cc1` (stereo not shown) [Compound I-141] belongs under 100 nM. Still for that read-out and setting: next, `Cc1cccn(CC2(c3ccc(Oc4cccc(C(F)(F)F)c4)cc3)NC(=O)NC2=O)c1=O` (stereo not shown) [Compound I-100]: under 100 nM; `Cc1cc(C2(Cn3cccc(C)c3=O)NC(=O)NC2=O)ccc1OC1CCCC1` (stereo not shown) [Compound I-39, 5-[4-(cyclopentyloxy)-3-methylphenyl]-5-[(3-methyl-2-oxopyridin-1(2H)-yl)methyl]imidazolidine-2,4-dione]: under 100 nM.

As for `COc1ccc(OC)c(C2(Cn3cccc(C)c3=O)NC(=O)NC2=O)c1` (stereo not shown) [Compound I-20, 5-(2,5-dimethoxyphenyl)-5-[(3-methyl-2-oxopyridin-1(2H)-yl)methyl]imidazolidine-2,4-dione], the IC50 was under 100 nM. Same read-out and setting: to `Cc1cccn(CC2(c3ccc(OCc4ccc(F)cc4)cc3)NC(=O)NC2=O)c1=O` (stereo not shown) [Compound I-88] belongs under 100 nM; to `Cc1cccc(Oc2ccc(C3(Cn4cccc(C)c4=O)NC(=O)NC3=O)cc2)c1` (stereo not shown) [Compound I-80], under 100 nM; to `COc1ccc(OC(F)(F)F)cc1C1(Cn2cccc(C)c2=O)NC(=O)NC1=O` (stereo not shown) [Compound I-24, 5-[2-methoxy-5-(trifluoromethoxy)phenyl]-5-[(3-methyl-2-oxopyridin-1(2H)-yl)methyl]imidazolidine-2,4-dione], 100 to 1000 nM. Still for that read-out and setting: next, `CCc1cccn(CC2(c3ccc(OC)cc3)NC(=O)NC2=O)c1=O` (stereo not shown) [Compound I-53, 5-[(3-ethyl-2-oxopyridin-1(2H)-yl)methyl]-5-(4-methoxyphenyl)imidazolidine-2,4-dione]: 100 to 1000 nM; `Cc1ccccc1Oc1ccc(C2(Cn3cccc(C)c3=O)NC(=O)NC2=O)cc1` (stereo not shown) [Compound I-35, 5-[(3-methyl-2-oxopyridin-1(2H)-yl)methyl]-5-[4-(o-tolyloxy)phenyl]imidazolidine-2,4-dione]: under 100 nM. `Cc1cccn(CC2(c3ccc(CCC4CCCCC4)cc3)NC(=O)NC2=O)c1=O` (stereo not shown) [Compound I-118] registered an IC50 of 100 to 1000 nM. Consider `Cc1cccn(CC2(c3cccc(-c4ccncc4)c3)NC(=O)NC2=O)c1=O` (stereo not shown) [Compound I-95], for which the 50% inhibitory concentration (IC50) is under 100 nM. In turn, `Cc1cccn(CC2(c3ccc(OC(C)C)cc3)NC(=O)NC2=O)c1=O` (stereo not shown) [Compound I-120] returned an IC50 of under 100 nM. On the same count and under the same terms, to `Cc1cccn(CC2(c3ccc(Oc4ccc(F)cc4F)cc3)NC(=O)NC2=O)c1=O` (stereo not shown) [Compound I-97] belongs under 100 nM; to `Cc1cccn(CC2(c3ccc(C#Cc4ccccc4)cc3)NC(=O)NC2=O)c1=O` (stereo not shown) [Compound I-106], under 100 nM; to `Cc1ccc(C2(Cn3cccc(C)c3=O)NC(=O)NC2=O)c(F)c1F` (stereo not shown) [Compound I-128], under 100 nM.

`Cc1cccn(CC2(c3ccc(-c4ccncc4)cc3)NC(=O)NC2=O)c1=O` (stereo not shown) [Compound I-31, 5-[(3-methyl-2-oxopyridin-1(2H)-yl)methyl]-5-[4-(pyridin-4-yl)phenyl]imidazolidine-2,4-dione]: the IC50 was under 100 nM.

The compound `O=C1NC(=O)C(Cn2cccc(F)c2=O)(c2ccccc2)N1` (stereo not shown) [Compound I-132] displayed a half-maximal inhibitory concentration (IC50) of under 100 nM. As for `Cc1cccn(CC2(c3cccc(-c4ccc(F)cn4)c3)NC(=O)NC2=O)c1=O` (stereo not shown) [Compound I-93], the IC50 was under 100 nM.

In turn, `Cc1cccn(CC2(c3ccc(-c4nn[nH]n4)cc3)NC(=O)NC2=O)c1=O` (stereo not shown) [Compound I-42, 5-[4-(2H-tetrazol-5-yl)phenyl]-5-[(3-methyl-2-oxopyridin-1(2H)-yl)methyl]imidazolidine-2,4-dione] showed an IC50 of under 100 nM.

With `COc1ccc(C)cc1C1(Cn2cccc(C)c2=O)NC(=O)NC1=O` (stereo not shown) [Compound I-76], the IC50 is 100 to 1000 nM.

For the compound `COc1ccc(C2(Cn3cccc(C)c3=O)NC(=O)NC2=O)cc1F` (stereo not shown) [Compound I-14, 5-(3-fluoro-4-methoxyphenyl)-5-[(3-methyl-2-oxopyridin-1(2H)-yl)methyl]imidazolidine-2,4-dione], the IC50 was under 100 nM. The same measure, in the same setting: next, `Cc1cccn(CC2(c3ccc(C#CC(C)(C)C)cc3)NC(=O)NC2=O)c1=O` (stereo not shown) [Compound I-33, 5-[4-(3,3-dimethylbut-1-yn-1-yl)phenyl]-5-[(3-methyl-2-oxopyridin-1(2H)-yl)methyl]imidazolidine-2,4-dione]: under 100 nM. The same measure, in the same setting: to `Cc1cccn(CC2(c3cccc(F)c3F)NC(=O)NC2=O)c1=O` (stereo not shown) [Compound I-153] belongs under 100 nM. The same measure, in the same setting: to `CCc1ccc(C2(Cn3cccc(C)c3=O)NC(=O)NC2=O)cc1` (stereo not shown) [Compound I-116] belongs under 100 nM; to `COc1ccccc1C1(Cn2cccc(C)c2=O)NC(=O)NC1=O` (stereo not shown) [Compound I-60], 100 to 1000 nM.

In turn, `Cc1cccn(CC2(c3ccc4occc4c3)NC(=O)NC2=O)c1=O` (stereo not shown) [Compound I-22, 5-(benzofuran-5-yl)-5-[(3-methyl-2-oxopyridin-1(2H)-yl)methyl]imidazolidine-2,4-dione] showed an IC50 of under 100 nM. Still for that read-out and setting: to `COc1ccccc1Oc1ccc(C2(Cn3cccc(C)c3=O)NC(=O)NC2=O)cc1` (stereo not shown) [Compound I-113] belongs under 100 nM; to `Cc1cccn(CC2(c3ccc(F)c(Cl)c3)NC(=O)NC2=O)c1=O` (stereo not shown) [Compound I-126], under 100 nM.

Take `Cc1cccn(CC2(c3ccc(CCc4ccccn4)cc3)NC(=O)NC2=O)c1=O` (stereo not shown) [Compound I-115]: the IC50 is under 100 nM. In turn, `COc1ccc(C2(Cn3cccc(Br)c3=O)NC(=O)NC2=O)cc1` (stereo not shown) [Compound I-52, 5-[(3-bromo-2-oxopyridin-1(2H)-yl)methyl]-5-(4-methoxyphenyl)imidazolidine-2,4-dione] yielded an IC50 of under 100 nM.

Another assay has as its system auricular oedema induced by TPA in BALB/c mice. The assay can be described thus: Inhibition test of auricular oedema induced by single application of TPA in mouse. It counts as in vivo. Particulars: 1 w/v % solution applied topically to ear 1 hour before TPA, auricle thickness 6 hours after TPA, read-out: Auricular oedema inhibition rate (%). How it is done:
Inhibition Test of Auricular Oedema Induced by Single Application of TPA (12-O-tetradecanoylphorbol-13-acetate) in Mouse (In Vivo Efficacy Test Based on TNF-α-Related Cutaneous Inflammation)
Auricular oedema was induced by applying 54 μmol/L TPA-acetone solution on both the inner and outer sides of the left ear of BALB/c mice (application volume of 54 μmol/L TPA-acetone solution is 10 μL for each side of the left ear (i.e. 1.08 nmol TPA/auricle)). For a non-induced group, acetone was similarly applied instead of the 54 μmol/L TPA-acetone solution. The test substance was dissolved and prepared in a 1 w/v % solution of acetone containing 10 vol % DMSO (topical administration vehicle), then the test solution was applied onto both the inner and outer sides of the left ear of the mice (application volume of this test solution is 10 μL for each side of the left ear) 1 hour before the TPA application. For a control group, the topical administration vehicle was similarly applied instead of the test substance solution. For an etanercept group, 0.2 mL of a 5 mg/mL etanercept solution was intravenously administered (1 mg/mouse) the day before TPA application and 1.5 hours before TPA application. For a human IgG (hIgG) group (etanercept control group), 0.2 mL of a 5 mg/mL hIgG solution was intravenously administered (1 mg/mouse). Auricle thickness was measured under ether anesthesia the day before TPA application and 6 hours after TPA application for evaluation of the auricular oedema inhibition effect of the test substance based on the increase in auricle thickness as an index.
The auricular oedema inhibition rate (%) of the test substance was calculated based on the following formula using (A) the average value of the increase in auricular thickness of the group administered with the test substance, (B) the average value of the increase in auricular thickness of the non-induced group, and (C) the average value of the increase in auricular thickness of the control group. […]
Take `Cc1cccn(CC2(c3ccc(Oc4cccc(F)c4)cc3)NC(=O)NC2=O)c1=O` (stereo not shown) [Compound I-84]: the inhibition in vivo at 10000 µg/mL is 53%. On the same count and under the same terms, next, `Cc1cc(C2(Cn3cccc(C)c3=O)NC(=O)NC2=O)cc(C)c1OC1CCCC1` (stereo not shown) [Compound I-129]: 71%. The same measure, in the same setting: to `Cc1cccn(CC2(c3ccc(Sc4ccccc4)cc3)NC(=O)NC2=O)c1=O` (stereo not shown) [Compound I-102] belongs 50%; to `Cc1cccn(CC2(c3ccc(Oc4ccc(F)cc4)cc3)NC(=O)NC2=O)c1=O` (stereo not shown) [Compound I-85], 78%; to `Cc1cccn(CC2(c3ccc(OC4CCCCC4)cc3)NC(=O)NC2=O)c1=O` (stereo not shown) [Compound I-37, 5-[4-(cyclohexyloxy)phenyl]-5-[(3-methyl-2-oxopyridin-1(2H)-yl)methyl]imidazolidine-2,4-dione], 78%. Regarding `Cc1cccn(CC2(c3ccc(Oc4ccc(Cl)cc4)cc3)NC(=O)NC2=O)c1=O` (stereo not shown) [Compound I-130], the inhibition in vivo at 10000 µg/mL is 44%.
